Measured values: patent US8604085B2, “Bupropion hydrobromide polymorphs” (Valeant International Bermuda, priority 2008, dated 2013)

Experiments:
Assay type in all cases: physicochemical
[1] = Precipitation from oversaturated solution at 100° C., cooling rate 0.45° C./min
Protocol: Bupropion hydrobromide Form I was dissolved at 100° C. in solvent to obtain the oversaturated solution. The cooling rate applied was 0.45° C./min. The samples were filtered and analyzed by X-ray diffraction. Form I converts into Form VI using 1-Propanol, and into Form V using 1,4-Dioxane. The other experiments yield only Form I. See Table 55 for Form I precipitation results by oversaturated solution. […]

[2] = Stability tests on bupropion hydrobromide polymorphs in humidity chamber (XRD pattern); conditions: 40° C., 85% R.H., open sample-holder
Protocol: Stability tests were performed on bupropion hydrobromide Form I, Form II, Form III, Form IV, Form V and Form VI. The powders were stored in a controlled atmosphere (85% R.H.) at 40° C. Form I and Form II were stored for 7 and 30 days respectively, while the other forms were stored only for 30 days. The sample was positioned on the sample-holder which was introduced, without any cover, into the humidity chamber at 40° C. The layer of the sample on the sample-holder was about 0.5 cm.
In addition, stability tests were performed on bupropion hydrobromide Form VII.

[3] = Slurries in 2-propanol at room temperature, 50° C. and 80° C.; conditions: form by XRD
Protocol: 0.050 g of Form I were suspended in 4 ml of solvent and stirred at room temperature. for 1 week (7 days). The sample was filtered and analyzed by X-ray diffraction.
0.040 g of Form I+0.040 g of Form II were suspended in 4 ml of solvent and stirred at room temperature for 1 week (7 days). The sample was filtered and analyzed by X-ray diffraction experiments.
0.050 g of Form II were suspended in 4 ml of solvent and stirred at room temperature for 1 week (7 days). The sample was filtered and analyzed by X-ray diffraction experiments.
0.050 g of Form I were suspended in 4 ml of solvent and stirred at 50° C. for 1 Week (7 days). The sample was filtered and analyzed by X-ray diffraction experiments.
0.040 g of Form I+0.040 g of Form II were suspended in 4 ml of solvent and stirred at 50° C. for 1 week (7 days). The sample was filtered and analyzed by X-ray diffraction experiments.
Form I+Form II were suspended in solvent and stirred at 80° C. for 14 hours. The sample was filtered and analyzed by X-ray diffraction experiments. […] Slurry in 2-propanol at 80° C. is an atypical experiment because if we consider the boiling point of the solvent, it could be defined as a combination between a slurry and precipitation experiment. Form I was obtained during the precipitation from supersaturated solution by 2-propanol. However the high temperature and the reflux produce the energetic conditions needed by the stable crystal form (Form II) to convert to the metastable crystal form (Form I).

[4] = Comparison of the stability of several bupropion salts in open and closed vials at about 40 degrees C. and about 75% relative humidity (HPLC); conditions: about 40 degrees C., about 75% relative humidity, various periods of time
Protocol: A comparison of the stability of several bupropion salts, including the hydrobromide, hydrochloride, maleate, tosylate, fumarate, succinate, tartrate and citrate salts, was performed by placing these salts in both open and closed vials in a stability chamber kept at about 40 degrees C. and about 75% relative humidity for various periods of time (e.g. 10 days, 13 days, 14 days, 20 days, 24 days, or 32 days). The stability of the salts was evaluated based on the formation of the main degradation products as determined by HPLC analysis and the % potency (or assay) of the API, after specific time periods in the stability chamber. The effect of the addition of solvents, such as water, ethanol and isopropyl alcohol, was also studied.

[5] = Forced degradation studies of bupropion hydrobromide and bupropion hydrochloride in closed bottles; conditions: about 40 degrees C., about 75% relative humidity
Protocol: Further stability tests were performed by directly comparing bupropion hydrobromide and bupropion hydrochloride salts in forced degradation studies. […] At specified times, the material in the bottles was analyzed for the presence of degradation products and % potency (% assay).

[6] = Release of bupropion base from the salt
Protocol: It was previously observed that when 150 mg of bupropion HCl was tested for its release of bupropion, the base value that was released was 130 mg. However, when 150 mg of bupropion HBr was tested, the base value released was only 112 mg. Thus, the amount of bupropion HBr had to be increased in order to increase the base value from 112 mg to 130 mg, which was the target.

Br.CC(NC(C)(C)C)C(=O)c1cccc(Cl)c1 (single isomer, unassigned) [Form I]
Precipitation Result ([1]; solvent 1,4-Dioxane): Form V | Precipitation Result ([1]; solvent 1-Butanol): Form I | Precipitation Result ([1]; solvent 1-Methyl-2-Pyrrolidone): Form I | Precipitation Result ([1]; solvent 1-Propanol): Form VI | Precipitation Result ([1]; solvent 2-Methoxy Ethanol): Form I | Precipitation Result ([1]; solvent 2-Methyl-1-Propanol): Form I | Precipitation Result ([1]; solvent (±)2-Butanol): Form I | Precipitation Result ([1]; solvent Dimethyl formamide): Form I | Precipitation Result ([1]; solvent Dimethyl sulfoxyde): Form I | Precipitation Result ([1]; solvent Nitromethane): Form I | Precipitation Result ([1]; solvent Water): Form I | Precipitation Result ([1]; solvent p-Xylene): Form I | XRD pattern / crystal form after storage ([2]; 7 days): did not show modification | XRD pattern / crystal form after storage ([2]; 30 days): did not show modification | Slurry result in 2-propanol ([3]; 50° C., 1 week (7 days)): converted to Form II | Slurry result in 2-propanol ([3]; mixture Form I+Form II, 80° C., 14 hours): remained as Form I | Slurry result in 2-propanol ([3]; room temperature, 1 week (7 days)): converted to Form II

Br.CC(NC(C)(C)C)C(=O)c1cccc(Cl)c1 (stereo not shown) [Bupropion hydrobromide, 3′-chloro-2-t-butylamino-1-propiophenone hydrobromide]
amount of degradation products compared with other bupropion salts [4]: least amount of degradation products | % potency compared to the bupropion hydrochloride salt [5]: generally higher | amount of impurities compared to the bupropion hydrochloride salt [5]: generally lower | base value that was released ([6]; 150 mg of the salt tested): 112 mg | base value that was released ([6]; 174 mg of the salt tested): 130 mg
